From ChEMBL document CHEMBL3763031, “Design, synthesis and biological evaluation of monobactams as antibacterial agents against gram-negative bacteria” (2016)
Values after ≈ are worked out from the molar mass of the structure shown.

What was measured:
[1] = test system: Proteus vulgaris; assay: Antibacterial activity against beta-lactamase producing Proteus vulgaris 29905 after 18 hrs by agar dilution assay; assay type: functional; settings: Proteus vulgaris, 29905, 18 h
[2] = test system: Pseudomonas aeruginosa; assay: Antimicrobial activity against Pseudomonas aeruginosa PAO1 after 18 hrs by microdilution method in presence of 40 uM iron; assay type: functional
[3] = test system: Pseudomonas aeruginosa; assay: Antibacterial activity against BL positive Pseudomonas aeruginosa 09-14 after 18 hrs by agar dilution assay; assay type: functional; settings: 09-14, 18 h
[4] = test system: Proteus mirabilis; assay: Antibacterial activity against beta-lactamase producing Proteus mirabilis 09-1 after 18 hrs by agar dilution assay; assay type: functional; settings: 09-1, 18 h
[5] = test system: Escherichia coli; assay: Antibacterial activity against ESBL negative Escherichia coli 25922 after 18 hrs by agar dilution assay; assay type: functional; settings: Escherichia coli, 25922, 18 h
[6] = test system: Klebsiella pneumoniae; assay: Antibacterial activity against ESBL positive Klebsiella pneumoniae 09-25 after 18 hrs by agar dilution assay; assay type: functional; settings: 09-25, 18 h
[7] = test system: Salmonella typhi; assay: Antibacterial activity against beta-lactamase producing Salmonella typhi H901 after 18 hrs by agar dilution assay; assay type: functional, Salmonella enterica subsp. enterica serovar Typhi; settings: Salmonella enterica, H901, 18 h
[8] = test system: Pseudomonas aeruginosa; assay: Antibacterial activity against BL positive Pseudomonas aeruginosa 27853 after 18 hrs by agar dilution assay; assay type: functional; settings: Pseudomonas aeruginosa, 27853, 18 h
[9] = test system: Pseudomonas aeruginosa; assay: Antimicrobial activity against Pseudomonas aeruginosa 27853 after 18 hrs by microdilution method in presence of 40 uM iron; assay type: functional
[10] = test system: Pseudomonas aeruginosa; assay: Antimicrobial activity against Pseudomonas aeruginosa 27853 after 18 hrs by microdilution method in presence of 4 uM iron; assay type: functional
[11] = test system: Enterobacter cloacae; assay: Antibacterial activity against beta-lactamase producing Enterobacter cloacae 45301 after 18 hrs by agar dilution assay; assay type: functional; settings: Enterobacter cloacae, 45301, 18 h
[12] = test system: Klebsiella pneumoniae; assay: Antibacterial activity against ESBL positive Klebsiella pneumoniae 700603 after 18 hrs by agar dilution assay; assay type: functional; settings: Klebsiella pneumoniae, 700603, 18 h
[13] = test system: Klebsiella pneumoniae; assay: Antibacterial activity against ESBL negative Klebsiella pneumoniae 09-8 after 18 hrs by agar dilution assay; assay type: functional; settings: 09-8, 18 h
[14] = test system: Citrobacter freundii; assay: Antibacterial activity against beta-lactamase producing Citrobacter freundii 43864 after 18 hrs by agar dilution assay; assay type: functional; settings: Citrobacter freundii, 43864, 18 h
[15] = test system: Escherichia coli; assay: Antibacterial activity against Escherichia coli BL21 by microbroth dilution assay; assay type: functional
[16] = test system: Escherichia coli; assay: Selectivity ratio of MIC for Escherichia coli BL21 to MIC for acrAB and acrEF knock-out Escherichia coli BL21; assay type: functional
[17] = test system: Klebsiella aerogenes; assay: Antibacterial activity against beta-lactamase producing Enterobacter aerogenes 45102 after 18 hrs by agar dilution assay; assay type: functional; settings: Klebsiella aerogenes, 45102, 18 h
[18] = test system: Pseudomonas aeruginosa; assay: Antibacterial activity against BL positive Pseudomonas aeruginosa PAO1 after 18 hrs by agar dilution assay; assay type: functional; settings: PAO1, 18 h
[19] = test system: Morganella morganii; assay: Antibacterial activity against beta-lactamase producing Morganella morganii 25830 after 18 hrs by agar dilution assay; assay type: functional; settings: Morganella morganii, 25830, 18 h
[20] = test system: Klebsiella pneumoniae; assay: Antibacterial activity against ESBL negative Klebsiella pneumoniae 7 after 18 hrs by agar dilution assay; assay type: functional; settings: Klebsiella pneumoniae, 7, 18 h
[21] = test system: Pseudomonas aeruginosa; assay: Antimicrobial activity against Pseudomonas aeruginosa PAO1 after 18 hrs by microdilution method in presence of 4 uM iron; assay type: functional
[22] = test system: Providencia rettgeri; assay: Antibacterial activity against Providencia rettgeri 31052 after 18 hrs by agar dilution assay; assay type: functional; settings: Providencia rettgeri, 31052, 18 h
[23] = test system: Klebsiella pneumoniae; assay: Antibacterial activity against NDM-1 positive Klebsiella pneumoniae BAA-2146 after 18 hrs by agar dilution assay; assay type: functional; settings: BAA-2146, 18 h
[24] = test system: Escherichia coli; assay: Antibacterial activity against ESBL negative Escherichia coli 09-20 after 18 hrs by agar dilution assay; assay type: functional; settings: 09-20, 18 h
[25] = test system: Pseudomonas aeruginosa; assay: microbe, parasite or virus in culture; settings: Pseudomonas aeruginosa, 27853, 18 h
Description: Antimicrobial activity against Pseudomonas aeruginosa 27853 after 18 hrs by microdilution method in absence of iron

[26] = test system: Pseudomonas aeruginosa; assay: Antimicrobial activity against Pseudomonas aeruginosa 27853 after 18 hrs by microdilution method in presence of 0.4 uM iron; assay type: functional
[27] = test system: Pseudomonas aeruginosa; assay: Antimicrobial activity against Pseudomonas aeruginosa PAO1 after 18 hrs by microdilution method in presence of 0.4 uM iron; assay type: functional
[28] = test system: Escherichia coli; assay: Antibacterial activity against acrAB and acrEF knock-out Escherichia coli BL21 by microbroth dilution assay; assay type: functional
[29] = test system: Serratia marcescens; assay: Antibacterial activity against beta-lactamase producing Serratia marcescens 41002 after 18 hrs by agar dilution assay; assay type: functional; settings: Serratia marcescens, 41002, 18 h
[30] = test system: Escherichia coli; assay: Antibacterial activity against ESBL positive Escherichia coli 09-1 after 18 hrs by agar dilution assay; assay type: functional; settings: 09-1, 18 h
[31] = test system: Escherichia coli; assay: Antibacterial activity against ESBL negative Escherichia coli 1515 after 18 hrs by agar dilution assay; assay type: functional; settings: Escherichia coli, 1515, 18 h
[32] = test system: Pseudomonas aeruginosa; assay: Antimicrobial activity against Pseudomonas aeruginosa PAO1 after 18 hrs by microdilution method in absence of iron; settings: PAO1, 18 h
[33] = Pseudomonas aeruginosa, 27853, 18 h

Compound	MIC [1] [µg/mL]	MIC [3] [µg/mL]	MIC [4] [µg/mL]	MIC [5] [µg/mL]	MIC [6] [µg/mL]	MIC [7] [µg/mL]	MIC [8] [µg/mL]	MIC [11] [µg/mL]	MIC [12] [µg/mL]	MIC [13] [µg/mL]	MIC [14] [µg/mL]	MIC [17] [µg/mL]	MIC [18] [µg/mL]	MIC [19] [µg/mL]	MIC [20] [µg/mL]	MIC [22] [µg/mL]	MIC [23] [µg/mL]	MIC [24] [µg/mL]	MIC [29] [µg/mL]	MIC [30] [µg/mL]	also measured
CCN(CC)CC.C[C@H]1[C@H](NC(=O)/C(=N\OCc2ccc(C(=O)N/N=C/c3ccccc3O)cc2)c2csc(N)n2)C(=O)N1S(=O)(=O)O (relative stereo)	0.25	4	8	4	> 64	0.5	8	2	> 64	16	4	2	4	2	2	≤ 0.03	> 64	64	8	64	MIC ([2]; PAO1, 18 h): > 128 µg/mL; MIC [9, 33]: > 128 µg/mL; MIC [10, 33]: 128 µg/mL; MIC [15]: 64 µg/mL; Selectivity ratio [16]: >16; MIC ([21]; PAO1, 18 h): 128 µg/mL; MIC [25]: 128 µg/mL; MIC [26, 33]: 128 µg/mL; MIC ([27]; PAO1, 18 h): 128 µg/mL; MIC [28]: 2 µg/mL; MIC [31]: 2 µg/mL; MIC [32]: > 128 µg/mL
CCN(CC)CC.C[C@H]1[C@H](NC(=O)/C(=N\OCc2ccc(C(=O)N/N=C/c3ncc[nH]3)cc2)c2csc(N)n2)C(=O)N1S(=O)(=O)O	0.125	32	2	4	> 64	1	32	1	64	8	2	2	32	0.25	8	0.06	> 64	64	4	64	MIC [15]: 1 µg/mL; MIC [28]: ≤ 0.06 µg/mL; MIC [31]: 8 µg/mL
CC1(C)[C@H](NC(=O)/C(=N\OCc2ccccn2)c2csc(N)n2)C(=O)N1S(=O)(=O)O	0.125 (≈ 0.275 µM)	64 (≈ 141 µM)	2 (≈ 4.4 µM)	2 (≈ 4.4 µM)	32 (≈ 70.4 µM)	32 (≈ 70.4 µM)	64 (≈ 141 µM)	1 (≈ 2.2 µM)	> 128	4 (≈ 8.8 µM)	2 (≈ 4.4 µM)	8 (≈ 17.6 µM)	32 (≈ 70.4 µM)	0.5 (≈ 1.1 µM)	4 (≈ 8.8 µM)	0.06 (≈ 0.132 µM)	16 (≈ 35.2 µM)	4 (≈ 8.8 µM)	8 (≈ 17.6 µM)	4 (≈ 8.8 µM)	MIC ([2]; PAO1, 18 h): 64 µg/mL; MIC [9, 33]: 128 µg/mL; MIC [10, 33]: 128 µg/mL; MIC [15]: 2 µg/mL (≈ 4.4 µM); Selectivity ratio [16]: >16; MIC ([21]; PAO1, 18 h): 128 µg/mL; MIC [25]: 128 µg/mL (≈ 282 µM); MIC [26, 33]: 128 µg/mL; MIC ([27]; PAO1, 18 h): 64 µg/mL; MIC [28]: ≤ 0.06 µg/mL; MIC [31]: 2 µg/mL (≈ 4.4 µM); MIC [32]: 64 µg/mL (≈ 141 µM)
CC1(C)[C@H](NC(=O)/C(=N\OCc2cccnc2)c2csc(N)n2)C(=O)N1S(=O)(=O)O	0.25 (≈ 0.55 µM)	> 128	32 (≈ 70.4 µM)	8 (≈ 17.6 µM)	8 (≈ 17.6 µM)	32 (≈ 70.4 µM)	> 128	4 (≈ 8.8 µM)	64 (≈ 141 µM)	8 (≈ 17.6 µM)	4 (≈ 8.8 µM)	8 (≈ 17.6 µM)	128 (≈ 282 µM)	0.5 (≈ 1.1 µM)	4 (≈ 8.8 µM)	0.03 (≈ 0.066 µM)	32 (≈ 70.4 µM)	4 (≈ 8.8 µM)	8 (≈ 17.6 µM)	4 (≈ 8.8 µM)	MIC ([2]; PAO1, 18 h): > 128 µg/mL; MIC [9, 33]: > 128 µg/mL; MIC [10, 33]: > 128 µg/mL; MIC [15]: 32 µg/mL (≈ 70.4 µM); Selectivity ratio [16]: >16; MIC ([21]; PAO1, 18 h): > 128 µg/mL; MIC [25]: > 128 µg/mL; MIC [26, 33]: > 128 µg/mL; MIC ([27]; PAO1, 18 h): > 128 µg/mL; MIC [28]: 0.5 µg/mL (≈ 1.1 µM); MIC [31]: 16 µg/mL (≈ 35.2 µM); MIC [32]: > 128 µg/mL
CCN(CC)CC.C[C@H]1[C@H](NC(=O)/C(=N\OCc2ccc(C(=O)N/N=C/c3cccs3)cc2)c2csc(N)n2)C(=O)N1S(=O)(=O)O (relative stereo)	0.06	32	4	4	> 64	1	64	1	64	8	2	2	64	1	2	≤ 0.03	> 64	64	2	64	MIC [15]: 2 µg/mL; Selectivity ratio [16]: >16; MIC [28]: ≤ 0.06 µg/mL; MIC [31]: 4 µg/mL
CCN(CC)CC.C[C@H]1[C@H](NC(=O)/C(=N\OCc2ccc(C(=O)N/N=C/c3ccc(O)cc3O)cc2)c2csc(N)n2)C(=O)N1S(=O)(=O)O (relative stereo)	0.5	16	1	8	> 64	8	16	4	64	32	8	4	16	0.12	2	≤ 0.03	> 64	64	4	64	Selectivity ratio [16]: >16; MIC [31]: 0.25 µg/mL
GENTAMICIN																					MIC [2]: 128 µg/mL; MIC [9]: 128 µg/mL; MIC [10]: 1 µg/mL; MIC [21]: 1 µg/mL; MIC [26]: 1 µg/mL; MIC [27]: 128 µg/mL
